Source: patent US8759368B2, “Benzoic acid, benzoic acid derivatives and heteroaryl carboxylic acid conjugates of hydrocodone, prodrugs, methods of making and use thereof” (KemPharma, Inc., priority 2009, dated 2014)

How the values were obtained:
[1] = Water solubility / hydrophobicity of conjugates (feasibility of intranasal or intravenous dosing); conditions: for water solubility (in words): mixed with water, basis for intranasal or intravenous dosing in rats; for hydrophobic character (in words): do not dissolve in a practical amount of water for intravenous dosing at oral equivalent doses
[2] = Oral PK in rats, plasma hydrocodone, hydromorphone and intact conjugate by LC-MS/MS
[3] = Chemical stability: hydrolysis in 5% NaHCO3 for one hour; type: physicochemical; conditions: 5% NaHCO3, one hour; for %-release in 5% NaHCO3, ambient: ambient temperature (~20° C.); for %-release in 5% NaHCO3, 100° C.: oil bath at 100° C.
[4] = Chemical stability: hydrolysis to hydrocodone in 1 N HCl for 1 hour; conditions: for %-release in 1N HCl, ambient: ambient temperature (~20° C.); for %-release in 1N HCl, 100° C.: oil bath at 100° C.
[5] = Intranasal PK in rats, plasma hydrocodone and hydromorphone by LC-MS/MS; conditions: equivalent to 2 mg/kg hydrocodone freebase
[6] = Oral PK in dogs, plasma intact Bz-HC, hydrocodone and hydromorphone by LC-MS/MS; conditions: equivalent to 2 mg/kg freebase hydrocodone, FIG. 17
[7] = Chemical stability: hydrolysis of conjugate in water for one hour; type: physicochemical; conditions: for water, ambient (amount of conjugate hydrolyzed): ambient temperature (about 20° C.); for water, 100° C. (amount of conjugate hydrolyzed): oil bath at 100° C.
Description: Exemplary conjugates of hydrocodone of the present technology and control test conjugates not of the present technology were tested for chemical stability under conditions similar to what a potential drug abuser may use to “extract” the active portion of the molecule, for example dissolved in water, hydrochloric acid or sodium bicarbonate either at ambient temperature or 100° C.

[8] = equivalent to 2 mg/kg freebase hydrocodone, FIG. 14
[9] = equivalent to 2 mg/kg hydrocodone freebase, FIG. 11
[10] = equivalent to 2 mg/kg hydrocodone freebase, FIG. 12

| Compound | water solubility (in words) [1] | hydrophobic character (in words) [1] | %-release in 5% NaHCO3, ambient [3] [%] | %-release in 5% NaHCO3, 100° C. [3] [%] | %-release in 1N HCl, ambient [4] [%] | %-release in 1N HCl, 100° C. [4] [%] | other results |
| --- | --- | --- | --- | --- | --- | --- | --- |
| COc1ccc2c3c1OC1C(OC(=O)COCC(=O)O)=CC[C@H]4[C@@H](C2)N(C)CC[C@]314 (stereo partly shown) [Diglycolate-HC, reference compound] | water soluble | – | – | – | – | – | – |
| COc1ccc2c3c1OC1C(OC(=O)c4cccnc4)=CCC4C(C2)N(C)CCC314 (stereo not shown) [Nicotinate-HC, nicotinate-hydrocodone] | – | hydrophobic | – | – | – | – | hydrocodone and hydromorphone plasma concentrations compared with unconjugated Hydrocodone.BT ([2]; equivalent to 2 mg/kg hydrocodone freebase, FIGS. 9 and 10): below the respective concentrations; AUC values of hydrocodone and hydromorphone compared with Hydrocodone.BT ([2]; same dose based on hydrocodone freebase): within the range of bioequivalence |
| COc1ccc(C(=O)OC2=CC[C@H]3[C@H]4Cc5ccc(OC)c6c5[C@@]3(CCN4C)C2O6)cc1O (stereo partly shown) [3-OH-4-MeO-Bz-HC] | poorly water soluble | hydrophobic | 0 | 36 | 0 | 35 | – |
| COc1ccc2c3c1OC1C(OC(=O)c4ccc5c(c4)OCO5)=CC[C@H]4[C@@H](C2)N(C)CC[C@]314 (stereo partly shown) [Piperonylate-HC] | poorly water soluble | hydrophobic | – | – | – | – | – |
| COc1ccc2c3c1O[C@H]1C(OC(=O)c4ccccc4O)=CC[C@H]4[C@@H](C2)N(C)CC[C@]314.Cl [Compound 2-OH-Bz-HC, Salicylic Acid Ester of Hydrocodone Hydrochloride Salt] | – | hydrophobic | – | – | – | – | – |
| Tyr-Tyr-Phe-Phe-Ile-Hydrocodone [YYFFI-HC, reference compound] | – | – | 0 | 70 | – | – | – |
| COc1ccc2c3c1OC1C(OC(=O)c4ccccc4)=CCC4C(C2)N(C)CCC314 (stereo not shown) [Bz-HC, benzoate-hydrocodone] | poor water solubility | hydrophobic | – | – | – | – | Cmax values of hydrocodone and hydromorphone versus dose ([2]; 0.25 to 4.00 mg/kg, particularly for hydromorphone): more variable; maximum plasma concentrations of hydromorphone versus dose ([2]; doses above 2.00 mg/kg of Bz-HC): did not significantly change; exposures (AUC) to hydrocodone and hydromorphone versus dose ([2]; doses of Bz-HC between 0.25 and 4.00 mg/kg, FIGS. 19 and 20): fairly linear; oral PK curve for released hydrocodone compared with YYFFI-HC ([2]; equivalent to 2 mg/kg freebase hydrocodone, FIG. 5): somewhat similar; AUC for intact Bz-HC as % of the AUC value for hydrocodone [2, 8]: approximately 10%; AUC for intact Bz-HC as % of the AUC value for hydromorphone [2, 8]: ~3%; hydrocodone plasma concentrations compared with Adipate-HC ([5]; FIG. 7): significantly lower; plasma concentration of hydromorphone compared with Adipate-HC ([5]; FIG. 8): very low; AUC value for intact Bz-HC as % of the AUC value for hydrocodone [6]: approximately 10% |
| COc1ccc2c3c1OC1C(OC(=O)c4ccccc4N)=CCC4C(C2)N(C)CCC314.Cl.Cl (stereo not shown) [Compound 2-ABz-HC, 2-Aminobenzoic Acid Ester of Hydrocodone Dihydrochloride Salt] | – | – | – | – | 0 | 16 | hydrocodone AUC, lower than for Hydrocodone.BT [2, 9]: approximately 35%; hydrocodone Cmax, lower than for Hydrocodone.BT [2, 9]: ~60%; hydromorphone AUC, lower than for Hydrocodone.BT [2, 10]: approximately 25%; hydromorphone Cmax, lower than for Hydrocodone.BT [2, 10]: ~50%; water, ambient (amount of conjugate hydrolyzed) [7]: 0%; water, 100° C. (amount of conjugate hydrolyzed) [7]: 0% |
| COc1ccc2c3c1O[C@H]1C(OC(=O)c4ccc(O)cc4)=CC[C@H]4[C@@H](C2)N(C)CC[C@]314 [Compound 4-OH-Bz-HC] | – | hydrophobic | 1 | 23 | 0 | 30 | water, ambient (amount of conjugate hydrolyzed) [7]: 0%; water, 100° C. (amount of conjugate hydrolyzed) [7]: 0% |
| COc1ccc2c3c1OC1C(OC(=O)c4cccc(O)c4)=CCC4C(C2)N(C)CCC314 (stereo not shown) [Compound 3-OH-Bz-HC] | poorly water soluble | hydrophobic | – | – | – | – | – |
| COc1ccc(C(=O)OC2=CC[C@H]3[C@H]4Cc5ccc(OC)c6c5[C@@]3(CCN4C)C2O6)cc1 (stereo partly shown) [Compound 4-MeO-Bz-HC] | – | hydrophobic | – | – | – | – | water, ambient (amount of conjugate hydrolyzed) [7]: 0%; water, 100° C. (amount of conjugate hydrolyzed) [7]: 0% |
| COc1ccc2c3c1OC1C(OC(=O)CCCCC(=O)O)=CC[C@H]4[C@@H](C2)N(C)CC[C@]314 (stereo partly shown) [Adipate-HC, reference compound] | water soluble | – | 3 | 100 | 13 | 100 | AUC for hydromorphone released from Adipate-HC, higher than for Bz-HC (sentence on hydrocodone plasma concentrations) ([5]; FIG. 7): approximately 280%; Cmax for hydromorphone released from Adipate-HC, higher than for Bz-HC (sentence on hydrocodone plasma concentrations) ([5]; FIG. 7): ~60%; AUC for hydromorphone released from Adipate-HC, higher than for Bz-HC ([5]; FIG. 8): approximately 750%; Cmax for hydromorphone released from Adipate-HC, higher than for Bz-HC ([5]; FIG. 8): ~660% |
